From patent publication US12428406B2 (PMV Pharmaceuticals, Inc., priority 2019, dated 2025)

The molecules below were run against T1, p53 Y220C (Homo sapiens, UniProt P04637, Y220C) (assay: In vitro DNA binding activity assay (HTRF / TR-FRET): stabilization of p53 Y220C and increase of its DNA binding activity). Conditions: recombinant His-tagged p53 Y220C DNA binding domain (aa 94-312), biotin-labeled consensus DNA, incubated at 27° C. or 29° C. for 60 min.
T1 construct: The recombinant protein was a truncation mutant containing only amino acids 94-312 of p53; made in house; host or cells: E. coli
T1 sequence (P04637 94-312, change not shown): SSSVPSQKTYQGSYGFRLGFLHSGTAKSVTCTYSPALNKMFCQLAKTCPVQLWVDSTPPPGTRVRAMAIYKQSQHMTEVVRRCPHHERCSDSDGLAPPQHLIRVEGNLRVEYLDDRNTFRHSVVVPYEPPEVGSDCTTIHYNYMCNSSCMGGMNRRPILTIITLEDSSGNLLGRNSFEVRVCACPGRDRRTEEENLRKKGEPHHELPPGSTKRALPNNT
Type: biochemical
Method in brief: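 His-tagged p53 Y220C, E. coli-expressed, binding biotin-labeled consensus DNA measured by HTRF (anti-His-APC, streptavidin-europium). Compounds from 4.5 mM DMSO stocks, 3-fold serial dilutions; incubations at room temperature 15 min, then 20 min. SC150 = concentration raising DNA binding by 50%.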
COc1cc(C(N)=O)ccc1NCC#Cc1cc2c(N[C@H]3CC[C@H](N4CC5(COC5)C4)CC3)cccc2n1CC(F)(F)F [Compound 212A, 3-methoxy-4-{[3-(4-{[(1R,4R)-4-{2-oxa-6-azaspiro[3.3]heptan-6-yl}cyclohexyl]amino}-1-(2,2,2-trifluoroethyl)-1H-indol-2-yl)prop-2-yn-1-yl]amino}benzamide] was tested, and the “SC150 (concentration of the compound required to increase the DNA binding activity by 50%)” value was “+ (+ = 0 μM ≤ SC150 < 0.05 μM)”. COc1cc(C(N)=O)ccc1NCC#Cc1cc2c(N[C@H]3CC[C@@H](N4CC5(COC5)C4)CC3)cccc2n1CC(F)(F)F [Compound 213A, 3-methoxy-4-{[3-(4-{[(1S,4S)-4-{2-oxa-6-azaspiro[3.3]heptan-6-yl}cyclohexyl]amino}-1-(2,2,2-trifluoroethyl)-1H-indol-2-yl)prop-2-yn-1-yl]amino}benzamide] was tested, and the “SC150 (concentration of the compound required to increase the DNA binding activity by 50%)” value was “+ (+ = 0 μM ≤ SC150 < 0.05 μM)”. With CS(=O)(=O)c1ccc(NCC#Cc2cc3c(N[C@H]4CC[C@H](N5CC6(COC6)C5)CC4)cccc3n2CC(F)(F)F)c(O)c1 [Compound 214A, 5-methanesulfonyl-2-{[3-(4-{[(1R,4R)-4-{2-oxa-6-azaspiro[3.3]heptan-6-yl}cyclohexyl]amino}-1-(2,2,2-trifluoro-ethyl)-1H-indol-2-yl)prop-2-yn-1-yl]amino}phenol] the “SC150 (concentration of the compound required to increase the DNA binding activity by 50%)” value was “+ (+ = 0 μM ≤ SC150 < 0.05 μM)”. In the case of CS(=O)(=O)c1ccc(NCC#Cc2cc3c(N[C@H]4CC[C@@H](N5CC6(COC6)C5)CC4)cccc3n2CC(F)(F)F)c(O)c1 [Compound 215A, 5-methanesulfonyl-2-{[3-(4-{[(1S,4S)-4-{2-oxa-6-azaspiro [3.3]heptan-6-yl}cyclo-hexyl]amino}-1-(2,2,2-trifluoroethyl)-1H-indol-2-yl)prop-2-yn-1-yl]amino}phenol], the “SC150 (concentration of the compound required to increase the DNA binding activity by 50%)” value is reported as “+ (+ = 0 μM ≤ SC150 < 0.05 μM)”. In the case of CC(C)C(=O)N(CC#Cc1cc2c(N[C@H]3CC[C@H](N4CC5(COC5)C4)CC3)cccc2n1CC(F)(F)F)c1ccc(S(C)(=O)=O)cc1O [Compound 218A, N-(2-hydroxy-4-methanesulfonylphenyl)-2-methyl-N-[3-(4-{[(1R,4R)-4-{2-oxa-6-azaspiro[3.3]heptan-6-yl}cyclohexyl]amino}-1-(2,2,2-trifluoroethyl)-1H-indol-2-yl)prop-2-yn-1-yl]propanamide], the “SC150 (concentration of the compound required to increase the DNA binding activity by 50%)” value is reported as “++++ (++++ = 0.2 μM ≤ SC150 < 1 μM)”. In the case of COCCOc1cc(S(C)(=O)=O)ccc1NCC#Cc1cc2c(N[C@H]3CC[C@H](N4CC5(COC5)C4)CC3)cccc2n1CC(F)(F)F [Compound 220A, 2-(3-{[4-methane-sulfonyl-2-(2-methoxyethoxy)phenyl]amino}prop-1-yn-1-yl)-N-[(1R,4R)-4-{2-oxa-6-azaspiro[3.3]heptan-6-yl}cyclohexyl]-1-(2,2,2-trifluoroethyl)-1H-indol-4-amine], the “SC150 (concentration of the compound required to increase the DNA binding activity by 50%)” value is reported as “+ (+ = 0 μM ≤ SC150 < 0.05 μM)”. In the case of COCCOc1cc(S(C)(=O)=O)ccc1NCC#Cc1cc2c(N[C@H]3CC[C@@H](N4CC5(COC5)C4)CC3)cccc2n1CC(F)(F)F [Compound 221A, 2-(3-{[4-methane-sulfonyl-2-(2-methoxyethoxy)phenyl]amino}prop-1-yn-1-yl)-N-[(1S,4S)-4-{2-oxa-6-azaspiro[3.3]heptan-6-yl}cyclohexyl]-1-(2,2,2-trifluoroethyl)-1H-indol-4-amine], the “SC150 (concentration of the compound required to increase the DNA binding activity by 50%)” value is reported as “+ (+ = 0 μM ≤ SC150 < 0.05 μM)”. CS(=O)(=O)c1ccc(NCC#Cc2cc3c(N[C@H]4CC[C@H](N5CC6(COC6)C5)CC4)cccc3n2CC(F)(F)F)c(OCC#N)c1 [Compound 222A, 2-(5-methanesulfonyl-2-{[3-(4-{[(1R,4R)-4-{2-oxa-6-azaspiro[3.3]heptan-6-yl}cyclo-hexyl]amino}-1-(2,2,2-trifluoroethyl)-1H-indol-2-yl)prop-2-yn-1-yl]amino}phenoxy) acetonitrile] was tested, and the “SC150 (concentration of the compound required to increase the DNA binding activity by 50%)” value was “+ (+ = 0 μM ≤ SC150 < 0.05 μM)”.
